Experimental data taken from BindingDB's records for doi:10.1021/acs.jmedchem.8b00789 (Laval University, 2018).

Tests used:
[1] = Antagonist activity at UT receptor in Sprague-Dawley rat thoracic aortic ring assessed as reduction in URP-induced contraction by measuring pEC50 for human urotensin-2-induced contraction at 1 x 10^-7M pre-incubated for 30 mins before urotensin-2 stimulation (Rvb = 8.16 +/- 0.08 No_unit)
[2] = Antagonist activity at UT receptor in Sprague-Dawley rat thoracic aortic ring assessed as reduction in urotensin-2-induced contraction by measuring pEC50 for human urotensin-2-induced contraction at 1 x 10^-7M uM pre-incubated for 30 mins before urotensin-2 stimulation (Rvb = 8.59 +/- 0.12 No_unit)
[3] = Antagonist activity at UT receptor in Sprague-Dawley rat thoracic aortic ring assessed as reduction in URP-induced contraction by measuring pEC50 for human urotensin-2-induced contraction at 3 x 10^-10M pre-incubated for 30 mins before urotensin-2 stimulation (Rvb = 8.16 +/- 0.08 No_unit)
[4] = Antagonist activity at UT receptor in Sprague-Dawley rat thoracic aortic ring assessed as reduction in urotensin-2-induced contraction by measuring pEC50 for human urotensin-2-induced contraction at 1 x 10^-8M uM pre-incubated for 30 mins before urotensin-2 stimulation (Rvb = 8.59 +/- 0.12 No_unit)
[5] = Antagonist activity at UT receptor in Sprague-Dawley rat thoracic aortic ring assessed as reduction in urotensin-2-induced contraction by measuring pEC50 for human urotensin-2-induced contraction at 1 uM pre-incubated for 30 mins before urotensin-2 stimulation (Rvb = 8.59 +/- 0.12 No_unit)
[6] = Antagonist activity at UT receptor in Sprague-Dawley rat thoracic aortic ring assessed as reduction in URP-induced contraction by measuring pEC50 for human urotensin-2-induced contraction at 1 uM pre-incubated for 30 mins before urotensin-2 stimulation (Rvb = 8.16 +/- 0.08 No_unit)

SMILES | EC50 [1] | EC50 [2] | EC50 [3] | EC50 [4] | EC50 [5] | EC50 [6]
CC(C)[C@H](NC(=O)[C@@H]1CSSC[C@H](NC(=O)[C@H](C)N)C(=O)N[C@@H](Cc2ccc(-c3ccccc3)cc2)C(=O)N[C@@H](Cc2c[nH]c3ccccc23)C(=O)N[C@@H](CCCCN)C(=O)N[C@@H](Cc2ccc(O)cc2)C(=O)N1)C(=O)O | 112 nM | 17 nM | 35 nM | 7.2 nM | – | –
CC(C)[C@H](NC(=O)[C@@H]1CSSC[C@H](NC(=O)[C@@H](N)CC(=O)O)C(=O)N[C@H](Cc2ccc(I)cc2)C(=O)N[C@@H](Cc2c[nH]c3ccccc23)C(=O)N[C@@H](CCCCN)C(=O)N[C@@H](Cc2ccc(O)cc2)C(=O)N1)C(=O)O | – | – | – | – | 1.1 nM | 12 nM
CC(C)[C@H](NC(=O)[C@@H]1CSSC[C@H](NC(=O)[C@H](C)N)C(=O)N[C@H](Cc2ccc(C#Cc3ccccc3)cc2)C(=O)N[C@@H](Cc2c[nH]c3ccccc23)C(=O)N[C@@H](CCCCN)C(=O)N[C@@H](Cc2ccc(O)cc2)C(=O)N1)C(=O)O | – | – | – | – | 5.4 nM | 18 nM

Further compounds by falling EC50 [5], results first:

EC50 [1] | EC50 [2] | EC50 [3] | EC50 [4] | EC50 [5] | EC50 [6] | SMILES
– | – | – | – | 6.8 nM | 2.8 nM | CC(C)[C@H](NC(=O)[C@@H]1CSSC[C@H](NC(=O)[C@H](C)N)C(=O)N[C@H](Cc2ccc(-c3ccccc3)cc2)C(=O)N[C@@H](Cc2c[nH]c3ccccc23)C(=O)N[C@@H](CCCCN)C(=O)N[C@@H](Cc2ccc(O)cc2)C(=O)N1)C(=O)O
– | – | – | – | 3.2 nM | 13 nM | CC(C)[C@H](NC(=O)[C@@H]1CSSC[C@H](NC(=O)[C@H](C)N)C(=O)N[C@H](Cc2ccc(I)cc2)C(=O)N[C@@H](Cc2c[nH]c3ccccc23)C(=O)N[C@@H](CCCCN)C(=O)N[C@@H](Cc2ccc(O)cc2)C(=O)N1)C(=O)O
